In paper PMC5513037, “Examining the influence of specificity ligands and ATP-competitive ligands on the overall effectiveness of bivalent kinase inhibitors” (Proteome Science, 2017):

Key:
Assay in all cases: KAM-matrix competition in K562 lysate;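 on 0.001 uM KAM: median log10 fold change of treatment over DMSO control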;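 on 0.01 uM KAM: median log10 fold change of treatment over DMSO control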;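 on 0.1 uM KAM: median log10 fold change of treatment over DMSO control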;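 on 1 uM KAM: median log10 fold change of treatment over DMSO control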;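 on 10 uM KAM: median log10 fold change of treatment over DMSO control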
Format in all cases: binding
STK17B = molecular target: T1, STK17B (Homo sapiens, UniProt O94768)
T1 construct: endogenous in cells; host or cells: K562 cells (lysate)
T1 sequence (O94768 1-372): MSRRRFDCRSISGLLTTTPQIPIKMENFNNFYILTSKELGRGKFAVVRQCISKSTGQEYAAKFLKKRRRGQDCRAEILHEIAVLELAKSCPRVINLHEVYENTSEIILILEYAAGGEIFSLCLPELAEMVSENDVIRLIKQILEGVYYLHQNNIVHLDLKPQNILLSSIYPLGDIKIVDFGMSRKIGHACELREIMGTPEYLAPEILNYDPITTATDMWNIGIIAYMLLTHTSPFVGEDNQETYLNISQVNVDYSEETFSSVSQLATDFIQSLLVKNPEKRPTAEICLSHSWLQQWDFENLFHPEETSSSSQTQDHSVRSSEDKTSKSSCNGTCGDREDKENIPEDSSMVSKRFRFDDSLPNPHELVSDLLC
Experimental: (§1) Supplement 12953_2017_125_MOESM1_ESM.zip/MS_Supp Info.xlsx, sheet "KAM" | column: 10 uM KAM; 1 uM KAM; 0.1 uM KAM; 0.01 uM KAM; 0.001 uM KAM; RB50

MAP3K3 = molecular target: T2, MAP3K3 (Homo sapiens, UniProt Q99759)
T2 construct: endogenous in cells; host or cells: K562 cell lysate
T2 sequence (Q99759 1-626): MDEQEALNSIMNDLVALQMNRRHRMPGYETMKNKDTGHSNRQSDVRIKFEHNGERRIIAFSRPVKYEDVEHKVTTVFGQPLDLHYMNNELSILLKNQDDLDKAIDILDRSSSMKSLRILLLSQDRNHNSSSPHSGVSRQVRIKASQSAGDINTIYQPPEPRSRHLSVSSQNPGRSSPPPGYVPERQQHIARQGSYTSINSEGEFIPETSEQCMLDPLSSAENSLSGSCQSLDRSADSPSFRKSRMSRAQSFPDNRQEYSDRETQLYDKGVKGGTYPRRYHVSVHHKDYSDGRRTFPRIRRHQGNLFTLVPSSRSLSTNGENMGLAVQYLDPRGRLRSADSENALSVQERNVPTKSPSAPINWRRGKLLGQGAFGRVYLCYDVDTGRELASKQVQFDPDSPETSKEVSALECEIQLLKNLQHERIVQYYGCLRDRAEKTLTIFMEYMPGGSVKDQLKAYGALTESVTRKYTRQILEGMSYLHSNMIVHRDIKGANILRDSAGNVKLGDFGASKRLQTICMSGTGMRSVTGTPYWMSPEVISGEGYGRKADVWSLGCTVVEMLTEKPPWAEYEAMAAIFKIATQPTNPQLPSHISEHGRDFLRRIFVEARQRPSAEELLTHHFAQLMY
Experimental: as §1

TGFBR2 = molecular target: T3, TGFBR2 (Homo sapiens, UniProt P37173)
T3 construct: endogenous in cells; host or cells: K562
Experimental: as §1

PHKG2 = molecular target: T4, PHKG2 (Homo sapiens, UniProt P15735)
T4 construct: endogenous in cells; host or cells: K562 cell lysate
T4 sequence (P15735 1-406): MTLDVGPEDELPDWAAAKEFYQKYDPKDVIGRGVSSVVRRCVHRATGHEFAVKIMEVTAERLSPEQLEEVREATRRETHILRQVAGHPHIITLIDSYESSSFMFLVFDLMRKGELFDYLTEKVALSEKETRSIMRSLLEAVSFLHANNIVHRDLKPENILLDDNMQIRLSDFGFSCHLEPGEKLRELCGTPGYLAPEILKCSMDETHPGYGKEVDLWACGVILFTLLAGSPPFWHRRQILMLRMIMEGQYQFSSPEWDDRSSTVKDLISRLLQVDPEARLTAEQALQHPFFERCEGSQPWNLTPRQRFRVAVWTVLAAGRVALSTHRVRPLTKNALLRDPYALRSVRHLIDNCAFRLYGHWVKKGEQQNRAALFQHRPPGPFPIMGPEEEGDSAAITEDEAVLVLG
Experimental: as §1

FYN = molecular target: T5, FYN (Homo sapiens, UniProt P06241)
T5 construct: endogenous in cells; host or cells: K562
Experimental: as §1

FER = molecular target: T6, FER (Homo sapiens, UniProt P16591)
T6 construct: endogenous in cells; host or cells: K562 lysate
Experimental: as §1

MAPK1 = molecular target: T7, MAPK1 (Homo sapiens, UniProt P28482)
T7 construct: endogenous in cells; host or cells: K562
Experimental: as §1

ABL2 = molecular target: T8, ABL2 (Homo sapiens, UniProt P42684)
T8 construct: endogenous in cells; host or cells: K562
Experimental: as §1

TRRAP = molecular target: T9, TRRAP (Homo sapiens, UniProt Q9Y4A5);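 on 0.001 uM KAM: median log10 fold change of treatment over DMSO control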;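 on 0.01 uM KAM: median log10 fold change of treatment over DMSO control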;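 on 0.1 uM KAM: median log10 fold change of treatment over DMSO control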;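 on 1 uM KAM: median log10 fold change of treatment over DMSO control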;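 on 10 uM KAM: median log10 fold change of treatment over DMSO control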
T9 construct: endogenous in cells; host or cells: K562
Experimental: as §1

MAP2K2 = molecular target: T10, MAP2K2 (Homo sapiens, UniProt P36507)
T10 construct: endogenous in cells; host or cells: K562
Experimental: as §1

[1] = read-out: RB50 (the source's name)

T3 sequence (P37173 23-567): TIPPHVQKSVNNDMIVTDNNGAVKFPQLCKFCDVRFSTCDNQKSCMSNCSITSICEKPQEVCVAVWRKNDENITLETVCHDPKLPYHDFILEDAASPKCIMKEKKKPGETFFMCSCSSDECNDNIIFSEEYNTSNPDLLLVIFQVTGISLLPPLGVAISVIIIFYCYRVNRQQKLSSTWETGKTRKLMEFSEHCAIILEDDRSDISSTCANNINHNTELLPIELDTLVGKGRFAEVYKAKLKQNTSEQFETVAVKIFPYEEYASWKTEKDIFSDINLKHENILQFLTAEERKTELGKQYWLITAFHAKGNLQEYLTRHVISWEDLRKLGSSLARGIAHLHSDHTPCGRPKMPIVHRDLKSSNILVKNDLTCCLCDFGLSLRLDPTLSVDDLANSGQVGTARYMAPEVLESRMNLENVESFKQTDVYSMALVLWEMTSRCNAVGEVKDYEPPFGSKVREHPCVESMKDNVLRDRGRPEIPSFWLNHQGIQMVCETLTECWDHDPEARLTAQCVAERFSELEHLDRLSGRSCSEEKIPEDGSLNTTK
T8 sequence (P42684 whole entry): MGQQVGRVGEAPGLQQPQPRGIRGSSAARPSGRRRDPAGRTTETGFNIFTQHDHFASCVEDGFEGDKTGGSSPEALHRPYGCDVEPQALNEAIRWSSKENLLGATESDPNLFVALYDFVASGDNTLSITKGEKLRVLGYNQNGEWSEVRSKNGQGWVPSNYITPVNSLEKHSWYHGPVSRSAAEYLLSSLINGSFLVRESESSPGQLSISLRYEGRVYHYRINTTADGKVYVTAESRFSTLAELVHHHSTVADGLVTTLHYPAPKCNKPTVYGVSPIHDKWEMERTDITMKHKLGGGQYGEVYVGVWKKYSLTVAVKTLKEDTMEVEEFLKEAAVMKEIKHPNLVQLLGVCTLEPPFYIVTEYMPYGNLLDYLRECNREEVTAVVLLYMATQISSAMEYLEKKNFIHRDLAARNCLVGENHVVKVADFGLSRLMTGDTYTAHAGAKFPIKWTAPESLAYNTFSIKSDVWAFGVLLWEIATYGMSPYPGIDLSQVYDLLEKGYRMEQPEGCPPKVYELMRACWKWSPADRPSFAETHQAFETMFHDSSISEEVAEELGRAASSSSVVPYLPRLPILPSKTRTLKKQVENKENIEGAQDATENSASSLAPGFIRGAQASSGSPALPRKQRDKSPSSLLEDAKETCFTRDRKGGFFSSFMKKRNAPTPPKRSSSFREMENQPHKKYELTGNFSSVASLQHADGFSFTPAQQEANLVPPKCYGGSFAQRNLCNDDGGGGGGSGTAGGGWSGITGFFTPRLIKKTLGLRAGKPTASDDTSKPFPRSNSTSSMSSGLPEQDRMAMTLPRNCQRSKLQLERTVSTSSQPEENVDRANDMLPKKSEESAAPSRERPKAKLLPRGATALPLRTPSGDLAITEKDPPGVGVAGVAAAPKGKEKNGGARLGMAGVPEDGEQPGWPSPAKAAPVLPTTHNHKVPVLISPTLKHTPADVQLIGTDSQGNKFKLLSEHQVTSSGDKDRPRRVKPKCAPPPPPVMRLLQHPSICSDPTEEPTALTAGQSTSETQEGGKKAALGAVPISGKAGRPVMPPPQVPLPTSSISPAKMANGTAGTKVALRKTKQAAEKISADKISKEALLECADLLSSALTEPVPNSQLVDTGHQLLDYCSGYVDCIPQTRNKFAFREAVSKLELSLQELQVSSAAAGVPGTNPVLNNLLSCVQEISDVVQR
T10 sequence (P36507 whole entry): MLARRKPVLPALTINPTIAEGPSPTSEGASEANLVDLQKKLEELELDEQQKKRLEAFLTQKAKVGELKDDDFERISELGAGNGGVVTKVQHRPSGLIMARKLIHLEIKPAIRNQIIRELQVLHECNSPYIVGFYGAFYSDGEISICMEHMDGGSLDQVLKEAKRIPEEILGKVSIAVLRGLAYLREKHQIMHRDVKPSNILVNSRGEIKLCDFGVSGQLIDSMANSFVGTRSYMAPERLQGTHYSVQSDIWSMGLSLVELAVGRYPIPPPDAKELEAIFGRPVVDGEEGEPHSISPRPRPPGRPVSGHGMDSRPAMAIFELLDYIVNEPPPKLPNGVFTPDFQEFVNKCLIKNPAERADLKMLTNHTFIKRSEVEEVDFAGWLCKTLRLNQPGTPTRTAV
T5 sequence (P06241 whole entry): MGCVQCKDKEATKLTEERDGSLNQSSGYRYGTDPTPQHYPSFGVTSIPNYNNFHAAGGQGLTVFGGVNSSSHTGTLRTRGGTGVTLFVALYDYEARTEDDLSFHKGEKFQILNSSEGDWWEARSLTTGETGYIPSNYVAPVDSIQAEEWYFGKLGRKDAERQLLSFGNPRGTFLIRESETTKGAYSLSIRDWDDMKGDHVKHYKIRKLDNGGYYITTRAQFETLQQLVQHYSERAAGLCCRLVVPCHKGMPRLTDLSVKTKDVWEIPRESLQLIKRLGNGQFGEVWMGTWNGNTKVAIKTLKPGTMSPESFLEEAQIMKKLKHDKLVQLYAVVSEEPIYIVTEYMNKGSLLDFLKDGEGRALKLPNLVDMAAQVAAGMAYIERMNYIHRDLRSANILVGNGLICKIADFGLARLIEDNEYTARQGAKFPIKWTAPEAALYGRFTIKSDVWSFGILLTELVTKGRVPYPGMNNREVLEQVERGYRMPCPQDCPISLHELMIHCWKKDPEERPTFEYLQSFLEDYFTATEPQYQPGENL
T6 sequence (P16591 whole entry): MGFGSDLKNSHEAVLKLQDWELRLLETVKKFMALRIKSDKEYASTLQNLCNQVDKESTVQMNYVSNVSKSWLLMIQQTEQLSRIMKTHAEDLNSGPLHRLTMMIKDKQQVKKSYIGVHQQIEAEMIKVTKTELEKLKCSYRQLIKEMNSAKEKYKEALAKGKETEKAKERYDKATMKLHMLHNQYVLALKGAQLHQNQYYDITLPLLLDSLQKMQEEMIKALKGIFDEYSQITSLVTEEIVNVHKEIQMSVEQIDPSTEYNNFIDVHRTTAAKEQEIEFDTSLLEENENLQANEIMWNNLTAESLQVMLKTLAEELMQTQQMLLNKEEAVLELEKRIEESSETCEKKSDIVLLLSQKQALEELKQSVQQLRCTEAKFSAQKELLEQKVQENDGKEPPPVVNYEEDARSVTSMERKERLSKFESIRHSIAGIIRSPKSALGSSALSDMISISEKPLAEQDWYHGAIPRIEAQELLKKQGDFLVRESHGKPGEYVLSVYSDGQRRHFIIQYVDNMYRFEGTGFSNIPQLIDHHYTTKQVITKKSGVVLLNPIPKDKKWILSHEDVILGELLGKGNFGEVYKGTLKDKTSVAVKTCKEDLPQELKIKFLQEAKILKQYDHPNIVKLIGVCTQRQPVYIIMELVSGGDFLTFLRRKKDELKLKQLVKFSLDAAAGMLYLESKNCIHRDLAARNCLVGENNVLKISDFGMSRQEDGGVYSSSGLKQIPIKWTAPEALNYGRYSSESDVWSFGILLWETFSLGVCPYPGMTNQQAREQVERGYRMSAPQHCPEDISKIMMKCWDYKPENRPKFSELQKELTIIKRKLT
T7 sequence (P28482 whole entry): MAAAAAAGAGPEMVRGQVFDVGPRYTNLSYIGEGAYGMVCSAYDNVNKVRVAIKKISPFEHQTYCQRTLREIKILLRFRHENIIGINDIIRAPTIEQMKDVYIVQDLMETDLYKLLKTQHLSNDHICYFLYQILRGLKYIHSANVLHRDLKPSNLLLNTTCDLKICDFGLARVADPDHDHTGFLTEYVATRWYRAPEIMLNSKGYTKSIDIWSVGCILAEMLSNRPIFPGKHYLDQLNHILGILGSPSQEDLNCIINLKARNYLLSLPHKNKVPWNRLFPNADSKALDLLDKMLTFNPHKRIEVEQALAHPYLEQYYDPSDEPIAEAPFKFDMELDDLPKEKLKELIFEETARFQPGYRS

N#CCc1ccc(Nc2nc(NCCCN)cc(Nc3cc(C4CC4)[nH]n3)n2)cc1 [KAM] was tested, and the “median Log10 fold change” value (STK17B; 0.001 uM KAM) was 0.02659, the “median Log10 fold change” value (STK17B; 0.01 uM KAM) was 0.008023 and the “median Log10 fold change” value (STK17B; 0.1 uM KAM) was -0.1097. The “median Log10 fold change” value (STK17B; 1 uM KAM) was -0.3588, the “median Log10 fold change” value (STK17B; 10 uM KAM) was -0.5971 and the IC50 (STK17B; [1]) was 799 nM. For the same compound, the “median Log10 fold change” value (MAP3K3; 0.001 uM KAM) was -0.04647, the “median Log10 fold change” value (MAP3K3; 0.01 uM KAM) was 0.002946 and the “median Log10 fold change” value (MAP3K3; 0.1 uM KAM) was -0.1524. The “median Log10 fold change” value (MAP3K3; 1 uM KAM) was -0.3206, the “median Log10 fold change” value (MAP3K3; 10 uM KAM) was -0.4381 and the IC50 (MAP3K3; [1]) was 1000 nM. For the same compound, the “median Log10 fold change” value (TGFBR2; 0.001 uM KAM) was 0.03003, the “median Log10 fold change” value (TGFBR2; 0.01 uM KAM) was -0.09645 and the “median Log10 fold change” value (TGFBR2; 0.1 uM KAM) was -0.3569. The “median Log10 fold change” value (TGFBR2; 1 uM KAM) was -0.3895, the “median Log10 fold change” value (TGFBR2; 10 uM KAM) was -0.4032 and the IC50 (TGFBR2; [1]) was 117 nM. The “median Log10 fold change” value (PHKG2; 0.001 uM KAM) was 0.003099, the “median Log10 fold change” value (PHKG2; 0.01 uM KAM) was -0.03027 and the “median Log10 fold change” value (PHKG2; 0.1 uM KAM) was -0.2223. The “median Log10 fold change” value (PHKG2; 1 uM KAM) was -0.4221, the “median Log10 fold change” value (PHKG2; 10 uM KAM) was -0.5566 and the IC50 (PHKG2; [1]) was 338 nM. For the same compound, the “median Log10 fold change” value (FYN; 0.001 uM KAM) was -0.01373, the “median Log10 fold change” value (FYN; 0.01 uM KAM) was 0.006068 and the “median Log10 fold change” value (FYN; 0.1 uM KAM) was -0.1646. For the same compound, the “median Log10 fold change” value (FYN; 1 uM KAM) was -0.3588, the “median Log10 fold change” value (FYN; 10 uM KAM) was -0.4538 and the IC50 (FYN; [1]) was 754 nM. The “median Log10 fold change” value (FER; 0.001 uM KAM) was -0.01643, the “median Log10 fold change” value (FER; 0.01 uM KAM) was -0.02602 and the “median Log10 fold change” value (FER; 0.1 uM KAM) was -0.1873. The “median Log10 fold change” value (FER; 1 uM KAM) was -0.4903, the “median Log10 fold change” value (FER; 10 uM KAM) was -0.6195 and the IC50 (FER; [1]) was 319 nM. For the same compound, the “median Log10 fold change” value (MAPK1; 0.001 uM KAM) was -0.0422, the “median Log10 fold change” value (MAPK1; 0.01 uM KAM) was -0.03333 and the “median Log10 fold change” value (MAPK1; 0.1 uM KAM) was -0.1132. For the same compound, the “median Log10 fold change” value (MAPK1; 1 uM KAM) was -0.2315, the “median Log10 fold change” value (MAPK1; 10 uM KAM) was -0.3482 and the IC50 (MAPK1; [1]) was 3180 nM. The “median Log10 fold change” value (ABL2; 0.001 uM KAM) was -0.03166, the “median Log10 fold change” value (ABL2; 0.01 uM KAM) was -0.02797 and the “median Log10 fold change” value (ABL2; 0.1 uM KAM) was -0.1724. For the same compound, the “median Log10 fold change” value (ABL2; 1 uM KAM) was -0.2861, the “median Log10 fold change” value (ABL2; 10 uM KAM) was -0.4205 and the IC50 (ABL2; [1]) was 1220 nM. For the same compound, the IC50 (TRRAP; KAM 0.001-10 uM, read-out: RB50 (the source's name)) was over 10000 nM, the “0.001 uM KAM” value (TRRAP; relative to 0 uM KAM = 0) was -0.07186 and the “0.01 uM KAM” value (TRRAP; relative to 0 uM KAM = 0) was 0.02458. For the same compound, the “0.1 uM KAM” value (TRRAP; relative to 0 uM KAM = 0) was 0.0008026, the “1 uM KAM” value (TRRAP; relative to 0 uM KAM = 0) was 0.06144 and the “10 uM KAM” value (TRRAP; relative to 0 uM KAM = 0) was -0.07955. For the same compound, the “median Log10 fold change” value (MAP2K2; 0.001 uM KAM) was -0.0579, the “median Log10 fold change” value (MAP2K2; 0.01 uM KAM) was -0.04236 and the “median Log10 fold change” value (MAP2K2; 0.1 uM KAM) was -0.2079. For the same compound, the “median Log10 fold change” value (MAP2K2; 1 uM KAM) was -0.4376, the “median Log10 fold change” value (MAP2K2; 10 uM KAM) was -0.4638 and the IC50 (MAP2K2; [1]) was 360 nM.
